Experimental data from publication PMC9266368, “Synthesis and Biological Evaluation of Small Molecules as Potential Anticancer Multitarget Agents” (International Journal of Molecular Sciences, 2022).

Legend:
[1] = system: HT-29 (colon adenocarcinoma); assay: MTT cell viability assay, HT-29; assay type: cell-based; details: Homo sapiens, HT-29, 48 h, 2 days incubation, average ±SD of three experiments
Procedure: (§1) The effects of triazole derivatives 1–26 on the cell viability were determined by MTT assay, and the IC50 values were determined toward the human tumor cell lines HT-29 (colon adenocarcinoma), A-549 (lung adenocarcinoma), and MCF-7 (breast adenocarcinoma), as well as toward the non-tumor cell line HEK-293 (human embryonic kidney cells).
(§2) In 96-well plates, 3 × 10^3 (A549 and HEK-293) or 5 × 10^3 (HT-29, MCF-7) cells per well were incubated with serial dilutions of the tested compounds in a total volume of 100 μL of their growth media. The 3-(4,5-dimethylthiazol-2-yl)-2,5-diphenyltetrazolium bromide (MTT; Sigma Chemical Co.) dye reduction assay in 96-well microplates was used. After 2 days of incubation (37 °C, 5% CO2 in a humid atmosphere), 10 μL of MTT (5 mg/mL in phosphate-buffered saline, PBS) was added to each well, and the plate was incubated for a further 3 h (37 °C). After that, the supernatant was discarded and replaced by 100 µL of DMSO to dissolve formazan crystals. The absorbance was then read at 550 nm by spectro-photometry. For all concentrations of compound, cell viability was expressed as the percentage of the ratio between the mean absorbance of treated cells and the mean absorbance of untreated cells. Three independent experiments were performed, and the IC50 values (i.e., concentration half inhibiting cell proliferation) were graphically determined by using GraphPad Prism 4 software (2019).

[2] = system: A-549 (lung adenocarcinoma); assay: MTT cell viability assay, A-549; assay type: cell-based; details: Homo sapiens, A549, 48 h, 2 days incubation, average ±SD of three experiments
Procedure: as §1, §2

[3] = system: MCF-7 (breast adenocarcinoma); assay: MTT cell viability assay, MCF-7; assay type: cell-based; details: Homo sapiens, MCF7, 48 h, 2 days incubation, average ±SD of three experiments
Procedure: as §1, §2

[4] = system: HEK-293 (human embryonic kidney cells); assay: MTT cell viability assay, HEK-293; assay type: cell-based; details: HEK293, 48 h, 2 days incubation, non-tumor cell line, average ±SD of three experiments
Procedure: as §1, §2

membrane PD-L1 (mPD-L1) = molecular target: T1, membrane PD-L1 (mPD-L1) (Homo sapiens, UniProt Q9NZQ7); assay: Membrane PD-L1 relative quantification by flow cytometry; assay type: cell-based; details: 24 h, 100 or 10 μM (Table 7), percentage referred to DMSO control
T1 construct: endogenous in cells; host or cells: HT-29, A-549, MCF-7
T1 sequence (Q9NZQ7 19-290): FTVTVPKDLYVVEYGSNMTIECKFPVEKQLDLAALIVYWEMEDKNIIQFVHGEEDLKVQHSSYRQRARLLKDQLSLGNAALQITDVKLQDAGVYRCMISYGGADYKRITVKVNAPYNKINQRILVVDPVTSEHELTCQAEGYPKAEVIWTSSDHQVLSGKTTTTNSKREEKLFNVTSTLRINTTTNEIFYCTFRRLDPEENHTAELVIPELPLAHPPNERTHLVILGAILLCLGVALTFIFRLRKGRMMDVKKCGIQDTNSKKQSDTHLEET
Procedure: Based on antiproliferative activity of synthetized derivatives, we decided to study the effect of the amino derivatives 14–26 on the expression of both membrane targets PD-L1 and VEGFR-2 (mPD-L1 and mVEGFR-2). The evaluation was performed on three cancer cell lines (HT-29, A-549, and MCF-7) by flow cytometry after 24 h of treatment with the corresponding compounds. Compounds were used at a 100 or 10 μM concentration depending on their IC50 value (see Table 1 in Materials and Methods section). The presence of both targets in the membrane was relatively determined by using DMSO-treated cells as a negative control.
(§3) To study the effect of the compounds on every biological target in cancer cell lines the compounds were used at a 100 or 10 μM dose, depending on their IC50 and the treated cell line.
(§4) For the assay, 10^5 cells per well were incubated for 24 h with the corresponding dose of the tested compound in a total volume of 500 μL of their growth media.
To detect membrane PD-L1 and VEGFR-2, after the cell treatments, they were collected, fixed with 4% in PBS paraformaldehyde, and stained with FITC Mouse monoclonal Anti-Human VEGFR-2 (ab184903) and Alexa Fluor® 647 Rabbit monoclonal Anti-PD-L1 (ab215251).

[5] = molecular target: T2, membrane VEGFR-2 (mVEGFR-2) (Homo sapiens, UniProt P35968); assay: Membrane VEGFR-2 relative quantification by flow cytometry; assay type: cell-based; details: 24 h, 100 or 10 μM (Table 7), sorafenib 10 μM, percentage referred to DMSO control
T2 construct: endogenous in cells; host or cells: HT-29, A-549, MCF-7
T2 sequence (P35968 20-1356): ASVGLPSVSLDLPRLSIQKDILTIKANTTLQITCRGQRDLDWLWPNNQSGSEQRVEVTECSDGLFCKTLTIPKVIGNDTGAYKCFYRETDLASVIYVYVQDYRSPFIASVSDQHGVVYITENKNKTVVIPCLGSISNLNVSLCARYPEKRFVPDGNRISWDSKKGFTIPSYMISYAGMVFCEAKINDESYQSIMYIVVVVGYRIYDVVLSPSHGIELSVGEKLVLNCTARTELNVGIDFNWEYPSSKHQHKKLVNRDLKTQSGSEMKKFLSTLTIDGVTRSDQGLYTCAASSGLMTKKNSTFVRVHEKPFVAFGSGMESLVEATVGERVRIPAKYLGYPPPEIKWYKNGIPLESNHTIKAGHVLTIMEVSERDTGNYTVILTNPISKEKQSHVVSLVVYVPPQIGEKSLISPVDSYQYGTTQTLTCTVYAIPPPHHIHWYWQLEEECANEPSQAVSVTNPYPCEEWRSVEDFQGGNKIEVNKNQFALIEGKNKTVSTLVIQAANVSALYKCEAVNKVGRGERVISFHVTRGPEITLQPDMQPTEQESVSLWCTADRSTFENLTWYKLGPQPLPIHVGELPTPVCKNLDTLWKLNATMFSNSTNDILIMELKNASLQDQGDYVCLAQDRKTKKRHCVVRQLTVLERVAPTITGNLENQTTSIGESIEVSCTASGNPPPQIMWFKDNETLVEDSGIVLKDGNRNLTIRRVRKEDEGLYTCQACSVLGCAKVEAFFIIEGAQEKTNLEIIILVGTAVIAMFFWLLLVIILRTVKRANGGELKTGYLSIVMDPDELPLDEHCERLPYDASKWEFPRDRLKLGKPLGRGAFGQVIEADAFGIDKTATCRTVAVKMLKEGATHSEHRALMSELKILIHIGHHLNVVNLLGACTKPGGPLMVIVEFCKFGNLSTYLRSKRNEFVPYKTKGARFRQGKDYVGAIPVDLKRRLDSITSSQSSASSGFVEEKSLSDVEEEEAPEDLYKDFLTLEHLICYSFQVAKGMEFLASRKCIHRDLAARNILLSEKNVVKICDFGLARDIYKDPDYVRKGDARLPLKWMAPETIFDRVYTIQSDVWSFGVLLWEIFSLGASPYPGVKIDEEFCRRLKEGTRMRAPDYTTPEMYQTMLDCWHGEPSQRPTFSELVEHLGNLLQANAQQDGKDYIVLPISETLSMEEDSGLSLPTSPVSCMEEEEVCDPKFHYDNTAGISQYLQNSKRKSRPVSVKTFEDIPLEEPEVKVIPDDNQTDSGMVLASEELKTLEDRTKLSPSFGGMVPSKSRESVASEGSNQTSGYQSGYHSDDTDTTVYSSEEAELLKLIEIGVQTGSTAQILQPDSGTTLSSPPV
Procedure: The presence of both targets in the membrane was relatively determined by using DMSO-treated cells as a negative control.
as §4

total PD-L1 (tPD-L1) = molecular target: T3, total PD-L1 (tPD-L1) (Homo sapiens, UniProt Q9NZQ7); assay: Total PD-L1 relative quantification by flow cytometry; assay type: cell-based; details: for tPD-L1 relative detection, A-549 / tPD-L1 relative detection, HT-29 / tPD-L1 relative detection, MCF-7: 24 h, 100 or 10 μM (Table 7), relative to DMSO control
T3 construct: endogenous in cells; host or cells: HT-29, A-549, MCF-7
T3 sequence (Q9NZQ7 19-290): as the sequence (Q9NZQ7 19-290) above
Procedure: (§5) The study was carried out again on HT-29, A-549, and MCF-7 cell lines by flow cytometry after 24 h of treatment with the corresponding compounds. The presence of the targets in the whole cell were relatively determined by using DMSO-treated cells as a negative control and BMS-8 as a positive one for PD-L1 (Table 3).
as §3, §4
(§6) For the detection of total PD-L1, VEGFR-2, and c-Myc, the procedure was the same as for membrane targets, but after fixation, a treatment with 0,5% in PBS TritonTM X-100 was performed. The antibodies used for PD-L1 and VEGFR-2 were the ones previously described, and for the detection of c-Myc, it was FITC Rabbit monoclonal anti-c-Myc (ab223913).

c-Myc = c-Myc relative quantification by flow cytometry; assay type: cell-based, human; details: for c-Myc relative detection, A-549 / c-Myc relative detection, HT-29 / c-Myc relative detection, MCF-7: 24 h, 100 or 10 μM (Table 7), relative to DMSO control
Procedure: as §5, §3, §4, §6

[6] = HT-29, compared to non-treated cells

`Nc1ccc(-c2cn(Cc3ccccc3)nn2)cc1` [Compound 14, 4-(1-benzyl-1H-1,2,3-triazol-4-yl)aniline] showed an IC50 [1] of 2 ± 1 µM, an IC50 [2] greater than 100 µM and an IC50 [3] of 1 µM. The IC50 [4] was greater than 100 µM, the “mPD-L1 relative detection, A-549” value (membrane PD-L1 (mPD-L1)) was greater than 100% and the “mPD-L1 relative detection, HT-29” value (membrane PD-L1 (mPD-L1)) was greater than 100%. The “mPD-L1 relative detection, MCF-7” value (membrane PD-L1 (mPD-L1)) was 94 ± 5%, the “mVEGFR-2 relative detection, A-549” value [5] was greater than 100% and the “mVEGFR-2 relative detection, HT-29” value [5] was 95 ± 6%. For the same molecule, the “mVEGFR-2 relative detection, MCF-7” value [5] was greater than 100%, the “tPD-L1 relative detection, A-549” value (total PD-L1 (tPD-L1)) was 98 ± 3% and the “tPD-L1 relative detection, HT-29” value (total PD-L1 (tPD-L1); HT-29) was greater than 100%. The “tPD-L1 relative detection, MCF-7” value (total PD-L1 (tPD-L1)) was greater than 100%, the “c-Myc relative detection, A-549” value (c-Myc; A-549) was greater than 100% and the “c-Myc relative detection, HT-29” value (c-Myc; HT-29) was greater than 100%. For the same molecule, the “c-Myc relative detection, MCF-7” value (c-Myc; MCF-7) was 60 ± 3% and the melting point was 180 to 181 °C.

`Nc1ccc(-c2cn(Cc3ccccc3Br)nn2)cc1` [Compound 24, 4-(1-(2-bromobenzyl)-1H-1,2,3-triazol-4-yl)aniline] gave an IC50 [1] of 3.7 µM, an IC50 [2] of 0.45 µM and an IC50 [3] of 5 ± 1 µM. The IC50 [4] was greater than 100 µM, the “mPD-L1 relative detection, A-549” value (membrane PD-L1 (mPD-L1)) was 88 ± 12% and the “mPD-L1 relative detection, HT-29” value (membrane PD-L1 (mPD-L1)) was 86 ± 11%. For the same molecule, the “mPD-L1 relative detection, MCF-7” value (membrane PD-L1 (mPD-L1)) was 91 ± 10%, the “mVEGFR-2 relative detection, A-549” value [5] was greater than 100% and the “mVEGFR-2 relative detection, HT-29” value [5] was 84 ± 8%. For the same molecule, the “mVEGFR-2 relative detection, MCF-7” value [5] was greater than 100%, the “tPD-L1 relative detection, A-549” value (total PD-L1 (tPD-L1)) was 56 ± 7% and the “Inhibition of total PD-L1, A-549” value (total PD-L1 (tPD-L1); compared to non-treated cells) was roughly 50%. For the same molecule, the “tPD-L1 relative detection, HT-29” value (total PD-L1 (tPD-L1); HT-29) was 45 ± 3%, the “tPD-L1 relative detection, MCF-7” value (total PD-L1 (tPD-L1)) was greater than 100% and the “c-Myc relative detection, A-549” value (c-Myc; A-549) was greater than 100%. For the same molecule, the “c-Myc relative detection, HT-29” value (c-Myc; HT-29) was greater than 100%, the “c-Myc relative detection, MCF-7” value (c-Myc; MCF-7) was 57 ± 8% and the melting point was 133 to 134 °C.

In the case of `COc1ccc(Cn2cc(-c3ccc(N)cc3)nn2)cc1` [Compound 20, 4-(1-(4-methoxybenzyl)-1H-1,2,3-triazol-4-yl)aniline], the IC50 [1] is reported as greater than 100 µM, the IC50 [2] is reported as greater than 100 µM and the IC50 [3] is reported as 6 ± 4 µM. For the same molecule, the IC50 [4] was greater than 100 µM, the “mPD-L1 relative detection, A-549” value (membrane PD-L1 (mPD-L1)) was 95 ± 8% and the “mPD-L1 relative detection, HT-29” value (membrane PD-L1 (mPD-L1)) was greater than 100%. The “mPD-L1 relative detection, MCF-7” value (membrane PD-L1 (mPD-L1)) was 91 ± 9%, the “mVEGFR-2 relative detection, A-549” value [5] was greater than 100% and the “mVEGFR-2 relative detection, HT-29” value [5] was 92 ± 14%. The “mVEGFR-2 relative detection, MCF-7” value [5] was greater than 100%, the “tPD-L1 relative detection, A-549” value (total PD-L1 (tPD-L1)) was 54 ± 6% and the “Inhibition of total PD-L1, A-549” value (total PD-L1 (tPD-L1); compared to non-treated cells) was roughly 50%. The “tPD-L1 relative detection, HT-29” value (total PD-L1 (tPD-L1); HT-29) was 67 ± 3%, the “Inhibition/downregulation of total PD-L1, HT-29” value (total PD-L1 (tPD-L1); [6]) was “around 35%” and the “tPD-L1 relative detection, MCF-7” value (total PD-L1 (tPD-L1)) was greater than 100%. The “c-Myc relative detection, A-549” value (c-Myc; A-549) was 69 ± 9%, the “Inhibition of c-Myc, A-549” value (c-Myc; A-549, compared to non-treated cells) was “around 30%” and the “c-Myc relative detection, HT-29” value (c-Myc; HT-29) was 74 ± 23%. The “Inhibition of c-Myc, HT-29” value (c-Myc; [6]) was “around 30%”, the “Inhibition of c-Myc, MCF-7” value (c-Myc; MCF-7) was “around 30%” and the “c-Myc relative detection, MCF-7” value (c-Myc; MCF-7) was 62 ± 7%. For the same molecule, the melting point was 132 to 134 °C.

`Cc1cccc(Cn2cc(-c3ccc(N)cc3)nn2)c1` [Compound 16, 4-(1-(3-methylbenzyl)-1H-1,2,3-triazol-4-yl)aniline] showed an IC50 [1] of 9 ± 6 µM, an IC50 [2] of 0.7 µM and an IC50 [3] of 2.1 µM. For the same molecule, the IC50 [4] was 63 ± 34 µM, the “mPD-L1 relative detection, A-549” value (membrane PD-L1 (mPD-L1)) was 86 ± 17% and the “mPD-L1 relative detection, HT-29” value (membrane PD-L1 (mPD-L1)) was 66 ± 21%. The “mPD-L1 relative detection, MCF-7” value (membrane PD-L1 (mPD-L1)) was greater than 100%, the “mVEGFR-2 relative detection, A-549” value [5] was greater than 100% and the “mVEGFR-2 relative detection, HT-29” value [5] was 93 ± 1%. For the same molecule, the “mVEGFR-2 relative detection, MCF-7” value [5] was greater than 100%, the “tPD-L1 relative detection, A-549” value (total PD-L1 (tPD-L1)) was greater than 100% and the “tPD-L1 relative detection, HT-29” value (total PD-L1 (tPD-L1); HT-29) was greater than 100%. For the same molecule, the “tPD-L1 relative detection, MCF-7” value (total PD-L1 (tPD-L1)) was greater than 100%, the “c-Myc relative detection, A-549” value (c-Myc; A-549) was greater than 100% and the “c-Myc relative detection, HT-29” value (c-Myc; HT-29) was greater than 100%. The “c-Myc relative detection, MCF-7” value (c-Myc; MCF-7) was 78 ± 7% and the melting point was 128 to 129 °C.

For `Cc1ccccc1Cn1cc(-c2ccc(N)cc2)nn1` [Compound 15, 4-(1-(2-methylbenzyl)-1H-1,2,3-triazol-4-yl)aniline], the IC50 [1] was 7 ± 1 µM, the IC50 [2] was 4 ± 3 µM and the IC50 [3] was 4 ± 1 µM. The IC50 [4] was greater than 100 µM, the “mPD-L1 relative detection, A-549” value (membrane PD-L1 (mPD-L1)) was 90 ± 6% and the “mPD-L1 relative detection, HT-29” value (membrane PD-L1 (mPD-L1)) was 74 ± 13%. The “mPD-L1 relative detection, MCF-7” value (membrane PD-L1 (mPD-L1)) was 84 ± 11%, the “mVEGFR-2 relative detection, A-549” value [5] was greater than 100% and the “mVEGFR-2 relative detection, HT-29” value [5] was 87 ± 1%. The “mVEGFR-2 relative detection, MCF-7” value [5] was greater than 100%, the “tPD-L1 relative detection, A-549” value (total PD-L1 (tPD-L1)) was greater than 100% and the “tPD-L1 relative detection, HT-29” value (total PD-L1 (tPD-L1); HT-29) was greater than 100%. For the same molecule, the “tPD-L1 relative detection, MCF-7” value (total PD-L1 (tPD-L1)) was greater than 100%, the “c-Myc relative detection, A-549” value (c-Myc; A-549) was greater than 100% and the “c-Myc relative detection, HT-29” value (c-Myc; HT-29) was greater than 100%. For the same molecule, the “c-Myc relative detection, MCF-7” value (c-Myc; MCF-7) was greater than 100% and the melting point was 131 to 133 °C.
